Earlier results, collected in patent publication US20240207289A1 (priority 2022, published 2024).

Target: Cannabinoid-2 (CB2R) receptor (Homo sapiens, UniProt P34972)
Sequence (P34972 whole entry): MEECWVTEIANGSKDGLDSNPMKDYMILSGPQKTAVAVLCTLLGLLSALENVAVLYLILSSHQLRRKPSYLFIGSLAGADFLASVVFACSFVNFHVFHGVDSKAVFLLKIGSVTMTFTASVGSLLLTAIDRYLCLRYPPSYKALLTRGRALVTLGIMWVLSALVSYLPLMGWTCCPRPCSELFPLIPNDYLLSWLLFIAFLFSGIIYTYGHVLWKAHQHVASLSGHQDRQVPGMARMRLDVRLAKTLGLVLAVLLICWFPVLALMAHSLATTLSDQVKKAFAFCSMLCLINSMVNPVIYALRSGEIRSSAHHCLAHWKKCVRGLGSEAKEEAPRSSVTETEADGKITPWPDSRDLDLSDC

CCCCCc1cc(O)c2c(c1)OC(C)(C)[C@@H]1CCC(C)=C[C@@H]21 [THC, delta-9-tetrahydrocannabinol]
activity at Cannabinoid-2 receptor: weak partial agonist activity
